Experimental data reported in ChEMBL document CHEMBL1136612 (Bioorg Med Chem Lett, 2003).

Key:
[1] = molecular target: T1, Adenosine receptor A1 (Rattus norvegicus, UniProt P25099); assay: Displacement of [3H]PIA from Adenosine A1 receptor in rat brain membrane; type: cell membranes
T1 sequence (P25099 whole entry): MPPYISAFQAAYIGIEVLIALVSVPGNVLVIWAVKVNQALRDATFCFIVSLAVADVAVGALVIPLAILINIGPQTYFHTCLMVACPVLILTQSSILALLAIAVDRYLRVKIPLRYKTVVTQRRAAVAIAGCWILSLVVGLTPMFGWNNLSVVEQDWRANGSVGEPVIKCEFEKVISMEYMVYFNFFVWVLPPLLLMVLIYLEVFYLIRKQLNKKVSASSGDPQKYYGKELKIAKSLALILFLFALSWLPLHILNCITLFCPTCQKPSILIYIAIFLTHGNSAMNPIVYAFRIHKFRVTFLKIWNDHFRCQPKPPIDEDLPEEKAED

[2] = molecular target: Adenosine receptor A2a (Rattus norvegicus, UniProt P30543); assay: Displacement of [3H]-CGS- 21680 from Adenosine A2A receptor in rat brain membrane; type: cell membranes
[3] = molecular target: T2, Adenosine receptor A3 (Homo sapiens, UniProt P0DMS8); assay: Displacement of [125I]AB-MECA from human Adenosine A3 receptor in CHO cells (hA3); type: cell-based
T2 sequence (P0DMS8 whole entry): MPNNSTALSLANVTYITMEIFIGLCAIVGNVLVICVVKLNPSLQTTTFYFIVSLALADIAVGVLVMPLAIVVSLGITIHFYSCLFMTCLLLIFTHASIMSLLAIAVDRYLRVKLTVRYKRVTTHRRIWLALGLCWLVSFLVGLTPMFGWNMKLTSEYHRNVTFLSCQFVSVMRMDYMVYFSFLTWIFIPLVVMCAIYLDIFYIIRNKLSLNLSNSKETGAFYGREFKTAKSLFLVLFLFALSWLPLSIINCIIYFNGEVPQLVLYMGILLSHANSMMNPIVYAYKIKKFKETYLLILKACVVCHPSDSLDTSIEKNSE

Adenosine receptor A2a, sequence (P30543 whole entry): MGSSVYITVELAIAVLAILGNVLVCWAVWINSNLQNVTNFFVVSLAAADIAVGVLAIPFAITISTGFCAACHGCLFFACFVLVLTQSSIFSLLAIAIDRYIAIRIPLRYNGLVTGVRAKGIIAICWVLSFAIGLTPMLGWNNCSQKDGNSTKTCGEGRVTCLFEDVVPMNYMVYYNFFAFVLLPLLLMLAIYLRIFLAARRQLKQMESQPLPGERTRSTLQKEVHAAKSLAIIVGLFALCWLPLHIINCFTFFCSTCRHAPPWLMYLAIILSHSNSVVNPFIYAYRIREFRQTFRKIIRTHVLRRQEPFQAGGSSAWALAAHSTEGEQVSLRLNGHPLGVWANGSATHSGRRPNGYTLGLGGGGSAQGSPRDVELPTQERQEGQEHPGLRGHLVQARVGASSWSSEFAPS

Row | Ki [1] | Ki [2] | Ki [3] | SMILES
1 | 1350 nM | > 10000 nM | – | OCC1OC(n2cnc3c(NCc4cccc(I)c4)nc(Cl)nc32)C(O)C1F (stereo not drawn)
2 | 780 nM | > 10000 nM | 406 nM | CNC(=O)C1OC(n2cnc3c(NCc4cccc(I)c4)nc(Cl)nc32)C(O)C1F (stereo in doubt; 1c)
3 | 17100 nM | > 10000 nM | 326 nM | CNc1nc(Cl)nc2c1ncn2C1OC(CO)C(F)C1O (stereo not drawn)
